Assay results as given in patent US20110152090A1, “HERBICIDAL COMPOSITIONS COMPRISING FLUFENACET” (Bayer CropScience AG, priority 2009, published 2011).

What was measured:
Type in all cases: in vivo
POAAN (Poa annua) [1] = assay: Greenhouse trial: PE soil application vs incorporation into the soil (test methods 1, 3); settings: g of AS/ha: (A) 90, (B) 1200, (C) 90, (D) 300
Description: (§1) In the standard design of the test, seeds of various broad-leaved weed and weed grass biotypes (origins) were sown in a 8-13 cm diameter pot filled with natural soil of a standard field soil (loamy silt; non-sterile) and covered with a covering soil layer of about 1 cm. The pots were then cultivated in a greenhouse (12-16 h of light, temperature day 20-22° C., night 15-18° C.) until the time of application. The pots were treated on a laboratory track sprayer with spray liquors comprising the compositions according to the invention, mixtures of the prior art or components used individually. Application of the active compounds or active compound combinations formulated as WG, WP, EC or otherwise was carried out at the appropriate growth stages of the plants. The application rate for the spray application was 100-600 l of water/ha. After the treatment, the plants were returned to the greenhouses.
(§2) About 3 weeks after the application, the soil action or/and foliar action was assessed visually according to a scale of 0-100% in comparison to an untreated comparative group: 0%=no noticeable effect compared to the untreated comparative group; 100%=full effect compared to the untreated comparative group.
(§3) (notes: the term “seeds” also includes vegetative propagation forms such as, for example, rhizome pieces; abbreviations used: h light=hours of illumination, g of AS/ha=gram of active substance per hectare, l/ha=liter per hectare, S=sensitive, R=resistant) • 1. Pre-emergence action against weeds: seeds of various broad-leaved weed and weed grass biotypes (origins) were sown in a 8-13 cm diameter pot filled with natural soil of a standard field soil (loamy silt; non-sterile) and covered with a covering soil layer of about 1 cm. The pots were then cultivated in a greenhouse (12-16 h of light, temperature day 20-22° C., night 15-18° C.) until the time of application. The pots were treated at the BBCH stage 00-10 of the seeds/plants on a laboratory track sprayer with spray liquors comprising the compositions according to the invention, mixtures or components used individually, as WG, WP, EC or other formulations. The application rate for the spray application was 100-600 l of water/ha. After the treatment, the plants were returned to the greenhouses and, when required, treated with fertilizer and watered. • 2. Post-emergence action against weeds: seeds of various broad-leaved weed and weed grass biotypes (origins) were sown in a 8-13 cm diameter pot filled with natural soil of a standard field soil (loamy silt; non-sterile) and covered with a covering soil layer of about 1 cm. The pots were then cultivated in a greenhouse (12-16 h of light, temperature day 20-22° C., night 15-18° C.) until the time of application. The pots were treated at various BBCH stages between 11-25 of the seeds/plants, i.e. generally between two to three weeks after the start of the cultivation, on a laboratory track sprayer with spray liquors comprising the compositions according to the invention, mixtures or components used individually, as WG, WP, EC or other formulations. The application rate for the spray application was 100-600 l of water/ha. After the treatment, the plants were returned to the greenhouses and, when required, treated with fertilizer and watered. • 3. Pre-emergence action against weeds with and without incorporation of active compound: seeds of various broad-leaved weed and weed grass biotypes (origins) were sown in a 8-13 cm diameter pot filled with natural soil of a standard field soil (loamy silt; non-sterile). […]

STEME (Stellaria media) [2] = assay: as above; settings: g of AS/ha: (A) 90, (B) 1200, (C) 90, (D) 300
Description: as §1, §2, §3

[3] = test system: HORVS (Hordeum vulgare, summer barley); assay: Greenhouse trial: different soil types (test method 8), crop; settings: g AS/ha: (A) 120, (B) 1200, (C) 90
Description: as §1, §2, §3

[4] = test system: STEME (Stellaria media), sensitive and resistant; assay: Greenhouse trial: resistant biotypes, PE application (test method 9); settings: g of AS/ha: (A) 90, (B) 1200, (C) 90, iodosulfuron 10
Description: as §1, §2, §3

[5] = test system: MATCH (Matricaria chamomilla), sensitive and resistant; assay: as above; settings: g of AS/ha: (A) 90, (B) 1200, (C) 90, iodosulfuron 10
Description: as §1, §2, §3

[6] = test system: LOLSS (Lolium species), sensitive and resistant; assay: as above; settings: g of AS/ha: (A) 90, (B) 1200, (C) 90, iodosulfuron 10
Description: as §1, §2, §3

[7] = test system: APESV (Apera Spica-venti); assay: Greenhouse trial: PO application (test method 2); settings: g of AS/ha: (A) 120, (B) 1600, (C) 120
Description: as §1, §2, §3

POAAN (Poa annua) [8] = assay: Greenhouse trial: PO application (test method 2); settings: g of AS/ha: (A) 120, (B) 1600, (C) 120
Description: as §1, §2, §3

STEME (Stellaria media) [9] = assay: Greenhouse trial: PO application (test method 2); settings: g of AS/ha: (A) 120, (B) 1600, (C) 120
Description: as §1, §2, §3

[10] = test system: MATCH (Matricaria chamomilla); assay: Greenhouse trial: different soil types (test method 8); settings: g of AS/ha: (A) 120, (B) 1200, (C) 90
Description: as §1, §2, §3

LOLPE (Lolium perenne) [11] = assay: as above; settings: g of AS/ha: (A) 120, (B) 1200, (C) 90
Description: as §1, §2, §3

[12] = test system: MATCH (Matricaria chamomilla); assay: Greenhouse trial: different sowing depths, PE application (test method 10); settings: g of AS/ha: (A) 90, (B) 1200, (C) 90
Description: as §1, §2, §3

[13] = test system: APESV (Apera Spica-venti); assay: as above; settings: g of AS/ha: (A) 90, (B) 1200, (C) 90
Description: as §1, §2, §3

[14] = test system: HORVS (Hordeum vulgare, summer barley); assay: Greenhouse trial: pre-sowing application vs PE application (test method 6), crop, PE part; settings: PE application; g of AS/ha: (A) 90, (B) 1200, (C) 90
Description: as §1, §2
(§4) (notes: the term “seeds” also includes vegetative propagation forms such as, for example, rhizome pieces; abbreviations used: h light=hours of illumination, g of AS/ha=gram of active substance per hectare, l/ha=liter per hectare, S=sensitive, R=resistant) • 1. Pre-emergence action against weeds: seeds of various broad-leaved weed and weed grass biotypes (origins) were sown in a 8-13 cm diameter pot filled with natural soil of a standard field soil (loamy silt; non-sterile) and covered with a covering soil layer of about 1 cm. The pots were then cultivated in a greenhouse (12-16 h of light, temperature day 20-22° C., night 15-18° C.) until the time of application. […]

[15] = test system: TRZAS (Triticum aestivum, summer wheat); assay: Greenhouse trial: pre-sowing application vs PE application (test method 6), crop, pre-sowing part; settings: application 7 days prior to sowing; g AS/ha: (A) 90, (B) 1200, (C) 90
Description: as §1, §2, §4

[16] = test system: HORVS (Hordeum vulgare, summer barley); assay: Greenhouse trial: selective PO action (test method 5); settings: PO application; g of AS/ha: (A) 120, (B) 1600, (C) 120
Description: as §1, §2, §4

[17] = test system: TRZAS (Triticum aestivum, summer wheat); assay: Greenhouse trial: crop selectivity, PE soil application vs incorporation (test methods 3, 4); settings: g of AS/ha: (A) 90, (B) 1200, (C) 90, (D) 300
Description: as §1
as §2, with “group. […]” for “group.”

AVEFA (Avena fatua) [18] = assay: Greenhouse trial: pre-sowing application vs PE application (test method 6)
Description: as §1, §2, §3

LOLPE (Lolium perenne) [19] = assay: as above
Description: as §1, §2, §3

[20] = test system: MATCH (Matricaria chamomilla); assay: Greenhouse trial: different irrigation systems (test method 7); settings: g of AS/ha: (A) 120, (B) 1200, (C) 90
Description: as §1, §2, §3

AVEFA (Avena fatua) [21] = assay: as above; settings: g of AS/ha: (A) 120, (B) 1200, (C) 90
Description: as §1, §2, §3

LOLPE (Lolium perenne) [22] = assay: as above; settings: g of AS/ha: (A) 120, (B) 1200, (C) 90
Description: as §1, §2, §3

[23] = PE application, g of AS/ha: (A) 90, (B) 1200, (C) 90
[24] = application 7 days prior to sowing, g AS/ha: (A) 90, (B) 1200, (C) 90

With `O=C(Nc1ccc(F)cc1F)c1cccnc1Oc1cccc(C(F)(F)F)c1` [(C) diflufenican, N-(2,4-difluorophenyl)-2-[3-(trifluoromethyl)phenoxy]-3-pyridinecarboxamide] the “activity POAAN (visual scale 0-100%)” value (POAAN (Poa annua) [1]; PE application) was 70%, the “activity POAAN (visual scale 0-100%)” value (POAAN (Poa annua) [1]; incorporation into the soil) was 92% and the “activity STEME (visual scale 0-100%)” value (STEME (Stellaria media) [2]; PE application) was 50%. The “activity STEME (visual scale 0-100%)” value (STEME (Stellaria media) [2]; incorporation into the soil) was 95%, the “activity on crop HORVS IU soil (visual scale 0-100%)” value ([3]; IU soil) was 0% and the “activity on crop HORVS IU/EC73 soil (visual scale 0-100%)” value ([3]; IU/EC73 soil) was 0%. The “activity STEME resistant (visual scale 0-100%)” value ([4]; resistant biotype) was 50%, the “activity STEME sensitive (visual scale 0-100%)” value ([4]; sensitive biotype) was 70% and the “activity MATCH resistant (visual scale 0-100%)” value ([5]; resistant biotype) was 30%. For the same compound, the “activity MATCH sensitive (visual scale 0-100%)” value ([5]; sensitive biotype) was 30%, the “activity LOLSS resistant (visual scale 0-100%)” value ([6]; resistant biotype) was 20% and the “activity LOLSS sensitive (visual scale 0-100%)” value ([6]; sensitive biotype) was 80%. For the same compound, the “activity APESV (visual scale 0-100%)” value [7] was 5%, the “activity POAAN (visual scale 0-100%)” value (POAAN (Poa annua) [8]) was 5% and the “activity STEME (visual scale 0-100%)” value (STEME (Stellaria media) [9]) was 30%. For the same compound, the “activity MATCH IU soil (visual scale 0-100%)” value ([10]; IU soil) was 40%, the “Difference of the soil types, MATCH” value ([10]; IU/EC73 soil vs IU soil) was −5% and the “activity MATCH IU/EC73 soil (visual scale 0-100%)” value ([10]; IU/EC73 soil) was 35%. The “activity LOLPE IU soil (visual scale 0-100%)” value (LOLPE (Lolium perenne) [11]; IU soil) was 45%, the “activity LOLPE IU/EC73 soil (visual scale 0-100%)” value (LOLPE (Lolium perenne) [11]; IU/EC73 soil) was 0% and the “activity MATCH 5 mm (visual scale 0-100%)” value ([12]; sowing depth 5 mm) was 60%. For the same compound, the “activity MATCH 20 mm (visual scale 0-100%)” value ([12]; sowing depth 20 mm) was 70%, the “activity APESV 5 mm (visual scale 0-100%)” value ([13]; sowing depth 5 mm) was 5% and the “activity APESV 20 mm (visual scale 0-100%)” value ([13]; sowing depth 20 mm) was 5%. The “activity on crop HORVS (visual scale 0-100%)” value [14] was 5%, the “activity on crop TRZAS (visual scale 0-100%)” value [15] was 5% and the “activity on crop HORVS (visual scale 0-100%)” value [16] was 5%. For the same compound, the “activity on crop TRZAS (visual scale 0-100%)” value ([17]; PE application) was 0%, the “activity on crop TRZAS (visual scale 0-100%)” value ([17]; incorporation into the soil) was 30% and the “activity AVEFA (visual scale 0-100%)” value (AVEFA (Avena fatua) [18]; [23]) was 30%. For the same compound, the “activity AVEFA (visual scale 0-100%)” value (AVEFA (Avena fatua) [18]; [24]) was 10%, the “activity LOLPE (visual scale 0-100%)” value (LOLPE (Lolium perenne) [19]; [23]) was 20% and the “activity LOLPE (visual scale 0-100%)” value (LOLPE (Lolium perenne) [19]; [24]) was 10%. For the same compound, the “activity MATCH (visual scale 0-100%)” value ([20]; irrigation from above) was 0%, the “activity MATCH (visual scale 0-100%)” value ([20]; irrigation from below) was 50% and the “activity AVEFA (visual scale 0-100%)” value (AVEFA (Avena fatua) [21]; irrigation from above) was 50%. The “activity AVEFA (visual scale 0-100%)” value (AVEFA (Avena fatua) [21]; irrigation from below) was 30%, the “activity LOLPE (visual scale 0-100%)” value (LOLPE (Lolium perenne) [22]; irrigation from above) was 20% and the “activity LOLPE (visual scale 0-100%)” value (LOLPE (Lolium perenne) [22]; irrigation from below) was 20%.
